The source of these data is patent US20090061024A1, “COMPOSITIONS AND METHODS EMPLOYING NMDA ANTAGONISTS FOR ACHIEVING AN ANESTHETIC-SPARING EFFECT” (Wyeth, priority 2007, published 2009).

Molecules are shown by their SMILES. Read-outs that look alike come from different tables or passages of the source.

The conditions of series [1]: doses needed to relieve hyperalgesia in preclinical pain models; cited from earlier work.
Series [2] has as its system rats trained to distinguish between PCP and saline. The following applies: cited from earlier work.
The nature of series [3]: Anesthetic-sparing effect of perzinfotel with isoflurane (summary statements). The format is in vivo, dogs. The following applies: in combination with anesthetic (isoflurane); doses without reduced cardiopulmonary function.
For series [4] the following is noted: doses typically used clinically; cited from earlier work.
Series [5] has as its system cingulate and retrosplenial cortices. The following applies: mice and rats, cited from earlier work.

Take `O=c1c2c(c1=O)N(CCP(=O)(O)O)CCCN2` [Perzinfotel, [2-(8,9-dioxo-2,6-diazabicyclo[5.2.0]non-1-(7)-en-2-yl)ethyl]phosphonic acid]: the ataxia or sedation entry in series [1] is “did not produce ataxia or sedation”. Moreover, the “substitution for PCP (discriminative stimulus effects)” value (“substitution for PCP” below) in series [2] is “did not substitute”. For the same compound, in series [3], the anesthetic-sparing effects entry was “up to 60%”.
On to `CNC1(c2ccccc2Cl)CCCCC1=O` (centres unmarked) [ketamine], for which the anesthetic-sparing effects in series [4] is listed as 10-20%.
In the case of `C[C@]12N[C@H](Cc3ccccc31)c1ccccc12` [dizocilpine], the “substitution for PCP” value in series [2] was “substitute”.
With `CC12CC3CC(C)(C1)CC(N)(C3)C2` [memantine], the “substitution for PCP” value in series [2] is recorded as “substitute”.
Take `O=C(O)[C@H]1C[C@@H](CP(=O)(O)O)CCN1` (relative stereo) [CGS-19755, cis-4-phosphonomethyl-2-piperidine carboxylic acid]: the “vacuoles in some layers of the cingulate and retrosplenial cortices” value in series [5] (behaviorally effective doses) is reported as “transient, reversible induction of vacuoles”. Besides, the “effectiveness:vacuolization ratio” value in series [5] is recorded as 1.
